IC50 and GI50 data for 14 compounds are collected here from ChEMBL document CHEMBL3600343, “Design, Synthesis, and Biological Evaluation of a Series of Anthracene-9,10-dione Dioxime β-Catenin Pathway Inhibitors” (J Med Chem, 2015).

A short description of assay [1]: Inhibition of Wnt/beta-catenin transcriptional activity in human HT-29 cells assessed as depletion of beta-catenin level by TCF luciferase promoter reporter assay. Format: cell-based. (In a reporter assay the amount or activity of a reporter protein is the signal.)
Assay [2] has as its system HT-29. Description: Growth inhibition of human HT-29 cells after 72 hrs by APH assay. Type of assay: functional, cell-based. To be noted: HT-29, 72 h.
Assay [3] in a line: Inhibition of Wnt/beta-catenin (unknown origin). Details: species or system Homo sapiens.

“And” between values parts separate entries of the source, which are not always exact repeats. Identical values can stand only once. Where only a bound is given, the exact number is not on record here.

By IC50 is commonly meant the concentration at which inhibition is half-maximal. In the case of `CC1CCN(S(=O)(=O)c2ccc3c(c2)C(=NO)c2cc(S(=O)(=O)N4CCC(C)CC4)ccc2-3)CC1`, the concentration for half-maximal inhibition (IC50) in assay [1] (Homo sapiens, HT-29) worked out at 740 nM.

Broadly, the GI50 is the concentration that inhibits growth by half. The compound `O=S(=O)(c1ccc2c(c1)C(=NO)c1cc(S(=O)(=O)N3CCCCCCCCCCC3)ccc1C2=NO)N1CCCCCCCCCCC1` showed a GI50 in assay [2] of 470 nM. Besides, the IC50 in assay [1] (Homo sapiens, HT-29) is 5000 nM.

In the case of `CC(C)(C)C1CCN(S(=O)(=O)c2ccc3c(c2)/C(=N\O)c2ccc(S(=O)(=O)N4CCC(C(C)(C)C)CC4)cc2/C3=N/O)CC1`, in assay [2], the concentration for 50% growth inhibition (GI50) was 90 nM. For the same compound, the half-inhibitory concentration (IC50) in assay [1] (Homo sapiens, HT-29) was 300 nM. As for `CC1CCN(S(=O)(=O)c2ccc3c(c2)C(=NO)c2cc(S(=O)(=O)N4CCC(C)CC4)ccc2CC3)CC1`, the IC50 in assay [1] (Homo sapiens, HT-29) is no less than 2500 nM.

Turning to `CCc1cc(Br)cc2c3c([nH]c12)C(CC)(CCC(=O)O)OCC3` (centres undefined), the half-maximal inhibitory concentration (IC50) in assay [3] is 46000 nM. In the case of `O=S(=O)(c1ccc2c(c1)C(=NO)c1cc(S(=O)(=O)N3CCCCCC3)ccc1C2=NO)N1CCCCCC1`, the GI50 in assay [2] was 140 nM. Also, the IC50 in assay [1] (Homo sapiens, HT-29) amounted to 1800 nM. Consider `O=S(=O)(NC12CC3CC(CC(C3)C1)C2)c1ccc2c(c1)/C(=N\O)c1ccc(S(=O)(=O)NC34CC5CC(CC(C5)C3)C4)cc1/C2=N/O`, for which, in assay [2], the concentration for 50% growth inhibition (GI50) was determined as 80 nM.

For the compound `CC1CCN(S(=O)(=O)c2ccc3c(c2)C(=NO)c2cc(S(=O)(=O)N4CCC(C)CC4)ccc2C3=NO)CC1`, the IC50 is 200 nM in assay [2]; 2500 nM and > 20 nM in assay [1] (ht-29). Take `O=S(=O)(c1ccc2c(c1)C(=NO)c1cc(S(=O)(=O)N3CCCCC3)ccc1C2=NO)N1CCCCC1`: the GI50 in assay [2] worked out at 3900 nM. Compound `CC(C)(C)C1CCN(S(=O)(=O)c2ccc3c(c2)C(=NO)c2cc(S(=O)(=O)N4CCC(C(C)(C)C)CC4)ccc2C3=NO)CC1` gave a GI50 in assay [2] of 190 nM. Further, the IC50 in assay [1] (Homo sapiens, HT-29) was 300 nM. Take `O=C1c2ccc(S(=O)(=O)N3CCCCCCC3)cc2C(=O)c2cc(S(=O)(=O)N3CCCCCCC3)ccc21`: the GI50 in assay [2] is greater than 100000 nM.

On to `Cc1ccc2nc(N)nc(NCc3ccc(NC(=O)c4ccc(F)cc4)cc3)c2c1`, for which the IC50 in assay [3] was 113 nM. Regarding `CCCC1CCN(S(=O)(=O)c2ccc3c(c2)C(=NO)c2cc(S(=O)(=O)N4CCC(CCC)CC4)ccc2C3=NO)CC1`, in assay [2], the GI50 turned out to be 60 nM. In assay [3], `Cc1cc(/C=C2\SC(=O)N(c3ccccc3)C2=O)c(C)n1-c1cccnc1` showed an IC50 of 40.3 nM.
